Assay results as given in PMC8741514, “Post-translational modifications within tau paired helical filament nucleating motifs perturb microtubule interactions and oligomer formation” (The Journal of Biological Chemistry, 2021).
“Also recorded” adds a separate entry of the source.

Test system: T2R complex
Experiment: STD NMR titration, tau peptide binding to T2R
Set-up: species or system porcine (tubulin isolated from porcine brain)
Conditions: T2R 10 μM; for STD signal / binding to T2R: 1H STD NMR, peptide 2.8 mM, 600 MHz, saturation time 2 s, GPEM buffer pH 6.9; for STD signal / binding to T2R / apparent Kd / affinity for T2R (in words): 10 °C; for apparent Kd / affinity for T2R (in words): STD amplification factor fit, large errors, qualitative
Experimental: Tubulin protein isolated from porcine brain (97 or >99% pure) was purchased from Cytoskeleton, Inc, as a lyophilized powder. Stathmin-like RB3 domain (RB3SLD) binds to heterodimeric tubulin with a 1:2 stoichiometry, forming a longitudinal dimer of tubulin dimers. For ^1H,^15N HSQC NMR experiments, lyophilized tubulin was dissolved into a solution of 48 μM ^15N-labeled K18 (unmodified, modified, or mutant) containing 53 μM RB3 for a final T2R concentration of 50 μM in a buffer containing 25 mM Tris-d11, 25 mM NaCl, 2.5 mM EDTA, 1.5 mM DTT, and 10% heavy water (deuterium oxide [D2O]) at pH 6.7. For ^1H STD NMR experiments, 10 μM T2R was used for samples containing 0.044 to 2.8 mM peptide. Peptide was directly dissolved into buffer or water and added to 10 μM T2R in a buffer containing 25 mM Tris-d11, 25 mM NaCl, 2.5 mM EDTA, 1.5 mM DTT, and 10% D2O at pH 6.7.
STD spectra were recorded at 10 °C on a 600 MHz spectrometer equipped with a cryoprobe by using a series of 40 equally spaced 50 ms Gaussian-shaped pulses, 4096 scans, a saturation time of 2 s, and on/off-resonance frequencies set to −0.5 and 60 ppm, respectively. Samples for ^1H STD NMR were dissolved into GPEM buffer (80 mM PIPES, 2 mM MgCl2, and 0.5 mM EGTA, at pH 6.9). Spectra were processed and analyzed using Topspin 3.1 (Bruker). We quantify the binding of tau peptides to T2R with a series of STD titration experiments ([95]). STD NMR spectra of the ligand with and without T2R were recorded. The concentration of ligand (tau peptide) ranged from 0.04 to 2.8 mM; T2R concentration was maintained at 10 μM. From STD NMR spectra, STD signals were integrated and summed for both STDdiff and STDref over three regions, 8.565 to 7.771, 7.584 to 7.384, and 7.073 to 6.681 ppm. From STDdiff and STDref, STD AFs (STDAF) were calculated according to Equation 1, where [L] is the concentration of peptide (0.04–2.8 mM) and [R] is the concentration of T2R (10 μM). […] STD-AF values (at a fixed saturation time) of a peptide were fitted according to Equation 2, where αSTD represents the maximum STD AF ([72]). For peptide concentration of […] and T2R concentration of 10 μM, we generated STD build-up curves by recording the STD difference signal at increasing saturation times of 0.1 to 4 s. […] (2) STDAF([L])=αSTD∗[L]/Kd+[L] (3) STDAF(t)=STDmax(1−e^(−Ksat∗t)) STD0=STDmax∗Ksat

Sequence: NIKHVPGGGSVQIV {phospho-Y} KPVDLSKVTSK [Phos-Y310 296 to 321, Y310 phosphorylated form of the 296 to 321 peptide]
- STD signal / binding to T2R (listed as phosphorylation at residue Y310): weaker STD signal; also recorded: Decreases in binding
- apparent Kd / affinity for T2R (in words) (peptide 0.044 to 2.8 mM, listed as Y310 phosphorylated peptide): severely reduced peptide binding to T2R
- apparent Kd / affinity for T2R (in words) (peptide 0.044 to 2.8 mM, listed as Y310 phosphorylated peptides): precluded a reliable fit
- apparent Kd / affinity for T2R (in words) (peptide 0.044 to 2.8 mM, listed as phosphorylation at Y310): linear binding curve over the accessible range of peptide concentrations, precluding a robust fit to the data, but indicating a more severe reduction in affinity

Sequence: NIKHVPGGGSVQIVY {succinyl-K} PVDLSKVTSK [Succinyl-K311 296 to 321, K311 succinylated form of the 296 to 321 peptide]
- STD signal / binding to T2R (listed as succinylation at residue K311): loss of binding is evident; also recorded: Decreases in binding
- apparent Kd / affinity for T2R (in words) (peptide 0.044 to 2.8 mM, listed as Succinylation at K311): trend toward lower apparent affinity
- apparent Kd / affinity for T2R (in words) (peptide 0.044 to 2.8 mM, listed as Succinylation of K311): trend toward reduced binding, though to a lesser extent
- apparent Kd increase vs 296 to 321 peptide (STD-AF, peptide 0.044 to 2.8 mM, trend): ca. twofold

Sequence: NLKHQPGGGKVQIIN {acetyl-K} KLDLSNVQSK [Acetyl-K280 265 to 290, K280 acetylated form of the 265 to 290 peptide]
- STD signal / binding to T2R (listed as acetylation at K280): further weakened
- STD signal / binding to T2R (listed as acetylation at residue K280): Decreases in binding
- apparent Kd / affinity for T2R (in words) (peptide 0.044 to 2.8 mM, listed as K280 acetylation): trend toward reduced binding, though to a lesser extent
